Measured values: patent publication US7253159B2, “Methods and compositions for immunomodulation using CD1 antigens” (The Brigham and Women's Hospital, Inc., priority 2003, dated 2007)

Experiments:
[1] = tested on: CD1a-restricted T cell lines (J.RT-3/CD8-2 cells); assay type: cell-based; details: FIG. 7, comparison between homologs
[2] = Iron-bound or unbound form detected by mass spectrometry; assay type: physicochemical; details: mass spectrometry: [M+Fe−2H]+ at m/z 923.5 or proton adduct at m/z 838.6
Text: The newly discovered antigens share some structural homology to mycobactin siderophores but lack two hydroxyl groups present in mycobactins, which confer upon mycobactins their ability to bind iron.

[3] = tested on: CD1a-restricted T cells; assay: CD1a-restricted T cell activation assay (CD8-2 T cell line); assay type: cell-based
[4] = tested on: polyclonal T cells; assay: Activation of polyclonal T cells; assay type: cell-based; details: test for mitogen effects
[5] = tested on: CD1c transfectants; assay type: cell-based; details: test for mitogen effects
[6] = tested on: J.RT-3 T lymphoblastoid cells / CD1a; assay type: cell-based
[7] = tested on: CD1b transfectants; assay type: cell-based; details: test for mitogen effects

| Compound | T cell response (ability to activate T cells) [1] | form detected (iron-bound or unbound) [2] | CD1a-restricted T cell response (recognition by T cells) [3] | activation of polyclonal T cells [4] | activation with CD1c transfectants [5] | calcium flux (activation) ([6]; […], Fura Red and Fluo-4, flow cytometry) | activation (calcium flux) in control settings ([6]; antigen, TCR or CD1a omitted, or cells not subjected to centrifugation (spin)) | activation with CD1b transfectants [7] |
| --- | --- | --- | --- | --- | --- | --- | --- | --- |
| CCCCCCCCCCCCCCCCCCCC(=O)NCCCCC(NC(=O)C1(C)COC(c2ccccc2O)=N1)C(=O)OC(C)CC(=O)NC1CCCCNC1=O (stereo not drawn) [DDM840] | weaker ability to activate T cells |  |  |  |  |  |  |  |
| CCCCCCCCCCCCCCCCCC(=O)NCCCCC(NC(=O)C1(C)COC(c2ccccc2O)=N1)C(=O)OC(C)CC(=O)NC1CCCCNC1=O (stereo not drawn) [DDM812] | weaker ability to activate T cells |  |  |  |  |  |  |  |
| mycobactin [reference compound] | not recognized | iron-bound form | did not stimulate |  |  |  |  |  |
| CCCCCCCCCCCCCCC/C=C\C(=O)NCCCCC(NC(=O)C1(C)COC(c2ccccc2O)=N1)C(=O)OC(C)CC(=O)NC1CCCCNC1=O (stereo not drawn) [DDM838, didehydroxymycobactin] | most potent | unbound form |  | not above to activate | not above to activate | Strong calcium flux | No activation | not above to activate |
